Test results: paper PMC11550998, “Novel 5-HT7 receptor antagonists modulate intestinal immune responses and reduce severity of colitis” (American Journal of Physiology - Gastrointestinal and Liver …, 2024)

How the values were obtained:
[1] = molecular target: T1, human 5HT7A-HEK membranes (Homo sapiens, UniProt P34969); assay: 5-HT7 binding assay ([3H]LSD displacement); details: Cheng-Prusoff
T1 construct: expressed in transfected cells; host or cells: HEK cells (membranes)
Description: Solutions of test compounds were a 10 mM stock in dimethyl sulfoxide (DMSO) and then further diluted 1:200 in assay buffer [50 mM tris(hydroxymethyl)aminomethane (TRIS), pH 7.5, 10 mM MgCl2, 0.5 mM ethylenediaminetetraacetic acid (EDTA)] to 50 µM (0.5% DMSO). Ten dilutions of the test compound in 0.5% DMSO/assay buffer were prepared in a twofold serial dilution to yield final compound concentrations ranging from 10 µM to 19.5 nM in the assay. In a 96-well polypropylene plate, 50 µL of assay buffer was added to all wells, and then 50 µL of 0.5% DMSO/assay buffer or 50 µM chlorpromazine or serial dilutions of test compounds were added to selected wells. To all wells, 100 µL of 0.2 mg/mL human 5HT7A-HEK membranes and 50 µL of 5 nM [^3H]lysergic acid diethylamide (LSD) in assay buffer were added. Reactions were incubated at room temperature for 1.5 h and harvested by rapid filtration onto 0.3% polyethyleneimine-treated GF/B filter plates using a Brandel harvester. […] Filter plates were dried overnight, scintillant was added, and the radioactivity retained on the filters was counted on a TopCount scintillation counter (PerkinElmer). Half maximal inhibitory concentration (IC50) and inhibitory constant (Ki) of test compounds were calculated using GraphPad’s Prism 5 nonlinear sigmoidal curve-fitting program. […] Ki values were calculated using the Cheng-Prusoff equation.

[2] = molecular target: α1a, α1b, α1d, β1, β2, β3, D2, D5, DAT, GABA-A, H2, H3, H4, mAChR1-5, opioid receptors (δ, κ, µ), benzodiazepine receptors (peripheral and brain) …; assay: Additional selectivity profiling, receptors and transporters (PDSP); details: PDSP panel, limited binding capacity; read-out: Ki at a variety of receptors and transporters
Description: (§1) In vitro assessments of MC-170073, MC-20078, and MC-230079 activity at the following targets were determined using the assay systems available through the Psychoactive Drug Screening Program (PDSP). Detailed protocols for each assay are available at https://pdsp.unc.edu/pdspweb/?site=assays. Receptors 5-HT1A, 5-HT1B, 5-HT1D, 5-HT1E, 5-HT2A, 5-HT2B, 5-HT2C, 5-HT3, 5-HT5A, 5-HT6, 5-HT7, α1A, α1B, α1D, α2A, α2B, α2C, benzodiazepine, β1, β2, β3, GABA-A, H1, H2, H3, H4, M1, M2, M3, M4, M5, δ-opioid, κ-opioid, and µ-opioid and transporters dopamine, norepinephrine, and serotonin were evaluated.

α2B = molecular target: T2, α2B (Homo sapiens, UniProt P18089); assay: PDSP selectivity profiling, α2B; format: binding
T2 construct: NIMH Psychoactive Drug Screening Program (PDSP), assay service
T2 sequence (P18089 whole entry): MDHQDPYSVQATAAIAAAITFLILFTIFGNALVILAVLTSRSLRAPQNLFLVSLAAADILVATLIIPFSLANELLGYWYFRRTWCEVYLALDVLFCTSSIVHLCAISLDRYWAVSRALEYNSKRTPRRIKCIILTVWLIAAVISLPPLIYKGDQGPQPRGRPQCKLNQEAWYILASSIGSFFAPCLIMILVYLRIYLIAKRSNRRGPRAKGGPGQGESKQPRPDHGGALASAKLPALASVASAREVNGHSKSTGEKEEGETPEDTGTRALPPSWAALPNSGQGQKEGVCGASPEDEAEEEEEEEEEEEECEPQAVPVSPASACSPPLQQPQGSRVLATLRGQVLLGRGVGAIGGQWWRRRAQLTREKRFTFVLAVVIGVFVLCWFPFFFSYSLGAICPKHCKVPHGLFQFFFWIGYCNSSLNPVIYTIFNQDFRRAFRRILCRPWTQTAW
Description: as §1

D3 = molecular target: T3, D3 (Homo sapiens, UniProt P35462); assay: PDSP selectivity profiling, D3; format: binding
T3 construct: NIMH Psychoactive Drug Screening Program (PDSP), assay service
T3 sequence (P35462 whole entry): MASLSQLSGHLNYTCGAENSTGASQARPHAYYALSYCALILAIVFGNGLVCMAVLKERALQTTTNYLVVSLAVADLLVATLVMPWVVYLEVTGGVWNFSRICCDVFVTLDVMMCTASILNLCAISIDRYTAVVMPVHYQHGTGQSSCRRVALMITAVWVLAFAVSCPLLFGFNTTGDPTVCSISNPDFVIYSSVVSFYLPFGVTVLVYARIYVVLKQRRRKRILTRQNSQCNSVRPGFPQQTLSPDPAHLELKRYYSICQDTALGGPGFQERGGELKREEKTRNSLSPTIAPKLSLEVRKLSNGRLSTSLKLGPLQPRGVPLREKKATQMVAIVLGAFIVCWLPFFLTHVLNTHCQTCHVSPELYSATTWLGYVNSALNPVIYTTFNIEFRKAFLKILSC

D4 = molecular target: T4, D4 (Homo sapiens, UniProt P21917); assay: PDSP selectivity profiling, D4; format: binding
T4 construct: NIMH Psychoactive Drug Screening Program (PDSP), assay service
T4 sequence (P21917 whole entry): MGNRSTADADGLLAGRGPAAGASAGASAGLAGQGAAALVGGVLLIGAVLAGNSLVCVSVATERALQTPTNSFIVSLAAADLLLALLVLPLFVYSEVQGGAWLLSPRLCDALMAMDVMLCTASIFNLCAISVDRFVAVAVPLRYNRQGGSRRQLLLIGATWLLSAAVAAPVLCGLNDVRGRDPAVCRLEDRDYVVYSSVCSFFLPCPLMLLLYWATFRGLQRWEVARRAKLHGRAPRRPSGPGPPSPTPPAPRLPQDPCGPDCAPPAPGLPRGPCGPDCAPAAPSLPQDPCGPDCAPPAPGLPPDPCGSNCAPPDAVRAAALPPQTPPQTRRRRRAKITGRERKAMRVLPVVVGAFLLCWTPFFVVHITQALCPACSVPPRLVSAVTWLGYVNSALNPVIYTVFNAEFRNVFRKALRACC

[3] = molecular target: human cytochrome P450 3A4 (Homo sapiens, UniProt P08684); assay: Cytochrome P450 inhibition assay, 3A4 (testosterone substrate, LC-MS/MS); format: in vitro ADME; details: expressed enzyme, read-out: IC50 CYP3A4
Sequence of human cytochrome P450 3A4 (P08684 whole entry): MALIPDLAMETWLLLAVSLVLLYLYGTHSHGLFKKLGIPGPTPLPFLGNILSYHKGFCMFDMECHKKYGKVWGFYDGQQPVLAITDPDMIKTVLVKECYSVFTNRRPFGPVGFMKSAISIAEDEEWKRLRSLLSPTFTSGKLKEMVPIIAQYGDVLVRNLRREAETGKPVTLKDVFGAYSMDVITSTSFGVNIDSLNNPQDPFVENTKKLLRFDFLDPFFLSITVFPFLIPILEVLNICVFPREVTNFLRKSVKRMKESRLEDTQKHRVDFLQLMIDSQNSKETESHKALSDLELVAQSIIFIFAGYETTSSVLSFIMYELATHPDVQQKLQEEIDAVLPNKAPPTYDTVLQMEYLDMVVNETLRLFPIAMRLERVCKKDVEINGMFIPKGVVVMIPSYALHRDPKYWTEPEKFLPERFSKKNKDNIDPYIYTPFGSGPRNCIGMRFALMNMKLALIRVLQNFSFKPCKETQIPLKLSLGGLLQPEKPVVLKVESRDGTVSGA
Description: (§2) Compounds were assessed for their ability to inhibit human cytochrome P450 3A4 using testosterone as a substrate and LC-MS/MS analysis, whereas the 2D6 and 2C9 assays used fluorescent substrates and EnVision plate reader analysis. Expressed enzymes were used to minimize nonspecific binding and membrane partitioning issues ([15]).

CYP2C9 = CYP2C9 (Homo sapiens, UniProt P11712); assay: Cytochrome P450 inhibition assay, 2C9 (fluorescent substrate); format: in vitro ADME; details: expressed enzyme
Sequence of CYP2C9 (P11712 whole entry): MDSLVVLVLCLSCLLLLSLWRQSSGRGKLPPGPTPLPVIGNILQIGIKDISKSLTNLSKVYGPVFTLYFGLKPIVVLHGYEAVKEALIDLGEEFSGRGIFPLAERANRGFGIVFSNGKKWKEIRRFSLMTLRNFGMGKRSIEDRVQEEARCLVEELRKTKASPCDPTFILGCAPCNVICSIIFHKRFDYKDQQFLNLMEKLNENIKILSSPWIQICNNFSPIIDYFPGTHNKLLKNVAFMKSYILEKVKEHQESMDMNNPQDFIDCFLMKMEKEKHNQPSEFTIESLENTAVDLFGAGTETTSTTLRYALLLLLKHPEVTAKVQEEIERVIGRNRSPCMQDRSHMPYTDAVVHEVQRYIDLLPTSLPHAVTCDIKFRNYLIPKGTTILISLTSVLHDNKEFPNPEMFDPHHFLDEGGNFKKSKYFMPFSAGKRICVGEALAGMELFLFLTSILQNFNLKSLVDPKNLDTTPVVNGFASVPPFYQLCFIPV
Description: as §2

T1 sequence (P34969 1-445 isoform P34969-2): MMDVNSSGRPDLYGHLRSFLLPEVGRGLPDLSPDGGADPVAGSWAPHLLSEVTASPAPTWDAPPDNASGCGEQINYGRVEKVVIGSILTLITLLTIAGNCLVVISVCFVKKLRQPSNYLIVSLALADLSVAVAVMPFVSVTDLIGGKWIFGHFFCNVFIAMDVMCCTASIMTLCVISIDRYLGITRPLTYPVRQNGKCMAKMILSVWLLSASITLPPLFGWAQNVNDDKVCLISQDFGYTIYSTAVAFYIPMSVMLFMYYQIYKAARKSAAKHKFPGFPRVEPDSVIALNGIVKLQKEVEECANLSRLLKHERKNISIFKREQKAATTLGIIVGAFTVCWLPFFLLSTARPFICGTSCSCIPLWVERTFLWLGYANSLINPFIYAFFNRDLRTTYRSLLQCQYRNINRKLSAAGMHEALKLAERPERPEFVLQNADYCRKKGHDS

Compound | Ki [1] [nM] | Ki [2] [µM] | Ki (α2B) [nM] | Ki (D3) [nM] | Ki (D4) [nM] | IC50 [3] [µM] | IC50 (CYP2C9) [µM]
CCC1(CC)CC(CCN2CCN(c3ccc(O)cc3)CC2)OC1=O (stereo not shown) [MC-170073] | 89 | > 10 | 493 | 1230 | 591 | > 10 | > 10
CCC1(CC)C[C@@H](CCN2CCN(c3ccc(O)cc3)CC2)OC1=O [MC-230078] | 106 | – | – | – | – | 9.46 | > 10
